The source made the active and inactive calls. No cut-off for these calls is given here.
Experiments:
Format in all cases: functional
Staphylococcus aureus [1] = assay: Antibacterial activity against Staphylococcus aureus at 25 ug/ml after 24 hrs by agar well diffusion method
Staphylococcus aureus [2] = assay: Antibacterial activity against Staphylococcus aureus at 50 ug/ml after 24 hrs by agar well diffusion method
Staphylococcus aureus [3] = assay: Antibacterial activity against Staphylococcus aureus at 75 ug/ml after 24 hrs by agar well diffusion method
Staphylococcus aureus [4] = assay: Antibacterial activity against Staphylococcus aureus at 100 ug/ml after 24 hrs by agar well diffusion method
Bacillus subtilis [5] = assay: Antibacterial activity against Bacillus subtilis at 25 ug/ml after 24 hrs by agar well diffusion method
Bacillus subtilis [6] = assay: Antibacterial activity against Bacillus subtilis at 50 ug/ml after 24 hrs by agar well diffusion method
Bacillus subtilis [7] = assay: Antibacterial activity against Bacillus subtilis at 75 ug/ml after 24 hrs by agar well diffusion method
Bacillus subtilis [8] = assay: Antibacterial activity against Bacillus subtilis at 100 ug/ml after 24 hrs by agar well diffusion method
Escherichia coli [9] = assay: Antibacterial activity against Escherichia coli at 25 ug/ml after 24 hrs by agar well diffusion method; details: for zone of inhibition at 25 µg/mL: read-out: DIZ
Escherichia coli [10] = assay: Antibacterial activity against Escherichia coli at 50 ug/ml after 24 hrs by agar well diffusion method; details: for zone of inhibition at 50 µg/mL: read-out: DIZ
Escherichia coli [11] = assay: Antibacterial activity against Escherichia coli at 75 ug/ml after 24 hrs by agar well diffusion method; details: for zone of inhibition at 75 µg/mL: read-out: DIZ
Escherichia coli [12] = assay: Antibacterial activity against Escherichia coli at 100 ug/ml after 24 hrs by agar well diffusion method; details: for zone of inhibition at 100 µg/mL: read-out: DIZ
Klebsiella pneumoniae [13] = assay: Antibacterial activity against Klebsiella pneumoniae at 25 ug/ml after 24 hrs by agar well diffusion method
Klebsiella pneumoniae [14] = assay: Antibacterial activity against Klebsiella pneumoniae at 50 ug/ml after 24 hrs by agar well diffusion method
Klebsiella pneumoniae [15] = assay: Antibacterial activity against Klebsiella pneumoniae at 75 ug/ml after 24 hrs by agar well diffusion method; details: for zone of inhibition at 75 µg/mL: read-out: DIZ
Klebsiella pneumoniae [16] = assay: Antibacterial activity against Klebsiella pneumoniae at 100 ug/ml after 24 hrs by agar well diffusion method; details: for zone of inhibition at 100 µg/mL: read-out: DIZ
Staphylococcus aureus [17] = assay: Antibacterial activity against methicillin resistant Staphylococcus aureus MRSA090 at 25 ug/ml after 24 hrs by agar well diffusion method
Staphylococcus aureus [18] = assay: Antibacterial activity against methicillin resistant Staphylococcus aureus MRSA090 at 50 ug/ml after 24 hrs by agar well diffusion method
Staphylococcus aureus [19] = assay: Antibacterial activity against methicillin resistant Staphylococcus aureus MRSA090 at 75 ug/ml after 24 hrs by agar well diffusion method
Staphylococcus aureus [20] = assay: Antibacterial activity against methicillin resistant Staphylococcus aureus MRSA090 at 100 ug/ml after 24 hrs by agar well diffusion method
Aspergillus niger [21] = assay: Antifungal activity against Aspergillus niger at 25 ug/ml after 48 hrs by agar well diffusion method
Aspergillus niger [22] = assay: Antifungal activity against Aspergillus niger at 50 ug/ml after 48 hrs by agar well diffusion method
Aspergillus niger [23] = assay: Antifungal activity against Aspergillus niger at 75 ug/ml after 48 hrs by agar well diffusion method
Aspergillus niger [24] = assay: Antifungal activity against Aspergillus niger at 100 ug/ml after 48 hrs by agar well diffusion method
Fusarium verticillioides [25] = assay: Antifungal activity against Fusarium moniliforme at 25 ug/ml after 48 hrs by agar well diffusion method
Fusarium verticillioides [26] = assay: Antifungal activity against Fusarium moniliforme at 50 ug/ml after 48 hrs by agar well diffusion method
Fusarium verticillioides [27] = assay: Antifungal activity against Fusarium moniliforme at 75 ug/ml after 48 hrs by agar well diffusion method
Fusarium verticillioides [28] = assay: Antifungal activity against Fusarium moniliforme at 100 ug/ml after 48 hrs by agar well diffusion method
Fusarium oxysporum [29] = assay: Antifungal activity against Fusarium oxysporum at 25 ug/ml after 48 hrs by agar well diffusion method; details: for zone of inhibition at 25 µg/mL: read-out: DIZ
Fusarium oxysporum [30] = assay: Antifungal activity against Fusarium oxysporum at 50 ug/ml after 48 hrs by agar well diffusion method; details: for zone of inhibition at 50 µg/mL: read-out: DIZ
Fusarium oxysporum [31] = assay: Antifungal activity against Fusarium oxysporum at 75 ug/ml after 48 hrs by agar well diffusion method; details: for zone of inhibition at 75 µg/mL: read-out: DIZ
Fusarium oxysporum [32] = assay: Antifungal activity against Fusarium oxysporum at 100 ug/ml after 48 hrs by agar well diffusion method; details: for zone of inhibition at 100 µg/mL: read-out: DIZ

Cc1cccc2nc(N/N=C/c3ccco3)sc12
diameter of the inhibition zone (DIZ) (Staphylococcus aureus [1]): inactive | diameter of the inhibition zone (DIZ) (Staphylococcus aureus [2]): inactive | diameter of the inhibition zone (DIZ) (Staphylococcus aureus [3]): inactive | diameter of the inhibition zone (DIZ) (Staphylococcus aureus [4]): inactive | diameter of the inhibition zone (DIZ) (Bacillus subtilis [5]): inactive | diameter of the inhibition zone (DIZ) (Bacillus subtilis [6]): inactive | diameter of the inhibition zone (DIZ) (Bacillus subtilis [7]): inactive | diameter of the inhibition zone (DIZ) (Bacillus subtilis [8]): inactive | zone of inhibition at 25 µg/mL (Escherichia coli [9]): 4 mm | zone of inhibition at 50 µg/mL (Escherichia coli [10]): 9 mm | zone of inhibition at 75 µg/mL (Escherichia coli [11]): 13 mm | zone of inhibition at 100 µg/mL (Escherichia coli [12]): 17 mm | zone of inhibition at 25 µg/mL (Klebsiella pneumoniae [13]; read-out: DIZ): 11 mm | zone of inhibition at 50 µg/mL (Klebsiella pneumoniae [14]; read-out: DIZ): 16 mm | zone of inhibition at 75 µg/mL (Klebsiella pneumoniae [15]): 21 mm | zone of inhibition at 100 µg/mL (Klebsiella pneumoniae [16]): 24 mm | zone of inhibition at 25 µg/mL (Staphylococcus aureus [17]; MRSA090, 24 h, read-out: DIZ): 5 mm | zone of inhibition at 50 µg/mL (Staphylococcus aureus [18]; MRSA090, 24 h, read-out: DIZ): 9 mm | zone of inhibition at 75 µg/mL (Staphylococcus aureus [19]; MRSA090, 24 h, read-out: DIZ): 13 mm | zone of inhibition at 100 µg/mL (Staphylococcus aureus [20]; MRSA090, 24 h, read-out: DIZ): 16 mm | zone of inhibition at 25 µg/mL (Aspergillus niger [21]; read-out: DIZ): 10 mm | zone of inhibition at 50 µg/mL (Aspergillus niger [22]; read-out: DIZ): 13 mm | zone of inhibition at 75 µg/mL (Aspergillus niger [23]; read-out: DIZ): 17 mm | zone of inhibition at 100 µg/mL (Aspergillus niger [24]; read-out: DIZ): 22 mm | zone of inhibition at 25 µg/mL (Fusarium verticillioides [25]; read-out: DIZ): 10 mm | zone of inhibition at 50 µg/mL (Fusarium verticillioides [26]; read-out: DIZ): 13 mm | zone of inhibition at 75 µg/mL (Fusarium verticillioides [27]; read-out: DIZ): 18 mm | zone of inhibition at 100 µg/mL (Fusarium verticillioides [28]; read-out: DIZ): 21 mm | zone of inhibition at 25 µg/mL (Fusarium oxysporum [29]): 4 mm | zone of inhibition at 50 µg/mL (Fusarium oxysporum [30]): 10 mm | zone of inhibition at 75 µg/mL (Fusarium oxysporum [31]): 14 mm | zone of inhibition at 100 µg/mL (Fusarium oxysporum [32]): 18 mm

Cc1cccc2nc(N/N=C/c3ccccc3)sc12
diameter of the inhibition zone (DIZ) (Staphylococcus aureus [1]): inactive | diameter of the inhibition zone (DIZ) (Staphylococcus aureus [2]): inactive | diameter of the inhibition zone (DIZ) (Staphylococcus aureus [3]): inactive | diameter of the inhibition zone (DIZ) (Staphylococcus aureus [4]): inactive | zone of inhibition at 25 µg/mL (Bacillus subtilis [5]; read-out: DIZ): 5 mm | zone of inhibition at 50 µg/mL (Bacillus subtilis [6]; read-out: DIZ): 7 mm | zone of inhibition at 75 µg/mL (Bacillus subtilis [7]; read-out: DIZ): 11 mm | zone of inhibition at 100 µg/mL (Bacillus subtilis [8]; read-out: DIZ): 13 mm | zone of inhibition at 25 µg/mL (Escherichia coli [9]): 9 mm | zone of inhibition at 50 µg/mL (Escherichia coli [10]): 11 mm | zone of inhibition at 75 µg/mL (Escherichia coli [11]): 13 mm | zone of inhibition at 100 µg/mL (Escherichia coli [12]): 15 mm | diameter of the inhibition zone (DIZ) (Klebsiella pneumoniae [13]): inactive | diameter of the inhibition zone (DIZ) (Klebsiella pneumoniae [14]): inactive | zone of inhibition at 75 µg/mL (Klebsiella pneumoniae [15]): 7 mm | zone of inhibition at 100 µg/mL (Klebsiella pneumoniae [16]): 10 mm | diameter of the inhibition zone (DIZ) (Staphylococcus aureus [17]): inactive | diameter of the inhibition zone (DIZ) (Staphylococcus aureus [18]): inactive | diameter of the inhibition zone (DIZ) (Staphylococcus aureus [19]): inactive | diameter of the inhibition zone (DIZ) (Staphylococcus aureus [20]): inactive | diameter of the inhibition zone (DIZ) (Aspergillus niger [21]): inactive | diameter of the inhibition zone (DIZ) (Aspergillus niger [22]): inactive | diameter of the inhibition zone (DIZ) (Aspergillus niger [23]): inactive | diameter of the inhibition zone (DIZ) (Aspergillus niger [24]): inactive | diameter of the inhibition zone (DIZ) (Fusarium verticillioides [25]): inactive | diameter of the inhibition zone (DIZ) (Fusarium verticillioides [26]): inactive | diameter of the inhibition zone (DIZ) (Fusarium verticillioides [27]): inactive | diameter of the inhibition zone (DIZ) (Fusarium verticillioides [28]): inactive | zone of inhibition at 25 µg/mL (Fusarium oxysporum [29]): 4 mm | zone of inhibition at 50 µg/mL (Fusarium oxysporum [30]): 8 mm | zone of inhibition at 75 µg/mL (Fusarium oxysporum [31]): 13 mm | zone of inhibition at 100 µg/mL (Fusarium oxysporum [32]): 16 mm

CCCCCC/C=N/Nc1nc2cccc(C)c2s1
diameter of the inhibition zone (DIZ) (Staphylococcus aureus [1]): inactive | diameter of the inhibition zone (DIZ) (Staphylococcus aureus [2]): inactive | diameter of the inhibition zone (DIZ) (Staphylococcus aureus [3]): inactive | diameter of the inhibition zone (DIZ) (Staphylococcus aureus [4]): inactive | diameter of the inhibition zone (DIZ) (Bacillus subtilis [5]): inactive | diameter of the inhibition zone (DIZ) (Bacillus subtilis [6]): inactive | diameter of the inhibition zone (DIZ) (Bacillus subtilis [7]): inactive | diameter of the inhibition zone (DIZ) (Bacillus subtilis [8]): inactive | diameter of the inhibition zone (DIZ) (Escherichia coli [9]): inactive | diameter of the inhibition zone (DIZ) (Escherichia coli [10]): inactive | diameter of the inhibition zone (DIZ) (Escherichia coli [11]): inactive | diameter of the inhibition zone (DIZ) (Escherichia coli [12]): inactive | diameter of the inhibition zone (DIZ) (Klebsiella pneumoniae [13]): inactive | diameter of the inhibition zone (DIZ) (Klebsiella pneumoniae [14]): inactive | diameter of the inhibition zone (DIZ) (Klebsiella pneumoniae [15]): inactive | diameter of the inhibition zone (DIZ) (Klebsiella pneumoniae [16]): inactive | diameter of the inhibition zone (DIZ) (Staphylococcus aureus [17]): inactive | diameter of the inhibition zone (DIZ) (Staphylococcus aureus [18]): inactive | diameter of the inhibition zone (DIZ) (Staphylococcus aureus [19]): inactive | diameter of the inhibition zone (DIZ) (Staphylococcus aureus [20]): inactive | diameter of the inhibition zone (DIZ) (Aspergillus niger [21]): inactive | diameter of the inhibition zone (DIZ) (Aspergillus niger [22]): inactive | diameter of the inhibition zone (DIZ) (Aspergillus niger [23]): inactive | diameter of the inhibition zone (DIZ) (Aspergillus niger [24]): inactive | diameter of the inhibition zone (DIZ) (Fusarium verticillioides [25]): inactive | diameter of the inhibition zone (DIZ) (Fusarium verticillioides [26]): inactive | diameter of the inhibition zone (DIZ) (Fusarium verticillioides [27]): inactive | diameter of the inhibition zone (DIZ) (Fusarium verticillioides [28]): inactive | diameter of the inhibition zone (DIZ) (Fusarium oxysporum [29]): inactive | diameter of the inhibition zone (DIZ) (Fusarium oxysporum [30]): inactive | diameter of the inhibition zone (DIZ) (Fusarium oxysporum [31]): inactive | diameter of the inhibition zone (DIZ) (Fusarium oxysporum [32]): inactive

Cc1cccc2nc(N/N=C/CC(C)C)sc12
diameter of the inhibition zone (DIZ) (Staphylococcus aureus [1]): inactive | diameter of the inhibition zone (DIZ) (Staphylococcus aureus [2]): inactive | diameter of the inhibition zone (DIZ) (Staphylococcus aureus [3]): inactive | diameter of the inhibition zone (DIZ) (Staphylococcus aureus [4]): inactive | diameter of the inhibition zone (DIZ) (Bacillus subtilis [5]): inactive | diameter of the inhibition zone (DIZ) (Bacillus subtilis [6]): inactive | diameter of the inhibition zone (DIZ) (Bacillus subtilis [7]): inactive | diameter of the inhibition zone (DIZ) (Bacillus subtilis [8]): inactive | diameter of the inhibition zone (DIZ) (Escherichia coli [9]): inactive | diameter of the inhibition zone (DIZ) (Escherichia coli [10]): inactive | diameter of the inhibition zone (DIZ) (Escherichia coli [11]): inactive | diameter of the inhibition zone (DIZ) (Escherichia coli [12]): inactive | diameter of the inhibition zone (DIZ) (Klebsiella pneumoniae [13]): inactive | diameter of the inhibition zone (DIZ) (Klebsiella pneumoniae [14]): inactive | diameter of the inhibition zone (DIZ) (Klebsiella pneumoniae [15]): inactive | diameter of the inhibition zone (DIZ) (Klebsiella pneumoniae [16]): inactive | diameter of the inhibition zone (DIZ) (Staphylococcus aureus [17]): inactive | diameter of the inhibition zone (DIZ) (Staphylococcus aureus [18]): inactive | diameter of the inhibition zone (DIZ) (Staphylococcus aureus [19]): inactive | diameter of the inhibition zone (DIZ) (Staphylococcus aureus [20]): inactive | diameter of the inhibition zone (DIZ) (Aspergillus niger [21]): inactive | diameter of the inhibition zone (DIZ) (Aspergillus niger [22]): inactive | diameter of the inhibition zone (DIZ) (Aspergillus niger [23]): inactive | diameter of the inhibition zone (DIZ) (Aspergillus niger [24]): inactive | diameter of the inhibition zone (DIZ) (Fusarium verticillioides [25]): inactive | diameter of the inhibition zone (DIZ) (Fusarium verticillioides [26]): inactive | diameter of the inhibition zone (DIZ) (Fusarium verticillioides [27]): inactive | diameter of the inhibition zone (DIZ) (Fusarium verticillioides [28]): inactive | diameter of the inhibition zone (DIZ) (Fusarium oxysporum [29]): inactive | diameter of the inhibition zone (DIZ) (Fusarium oxysporum [30]): inactive | diameter of the inhibition zone (DIZ) (Fusarium oxysporum [31]): inactive | diameter of the inhibition zone (DIZ) (Fusarium oxysporum [32]): inactive
